Tested on: ARE luciferase activity of 293T cells
Test: ARE luciferase reporter gene activity in transfected 293T cells (dual-luciferase, anti-oxidation activity)
Type: cell-based
Conditions: tBHQ 10 μM, 6 h, n = 18, control = 1 ± 0.19, relative luciferase activity
Experimental: The 293T cells in the logarithmic growth phase were inoculated in a 96-well cell culture plate at a density of 2×10^5 cells/mL. After the growth density of the cells reached 70%-80%, the ARE and NF-kB luciferase reporter plasmids pGL4.37 and pGL4.32 (100 ng/well) and the […] luciferase reporter plasmid pGL4.75 (10 ng/well) were simultaneously transfected using the PEI (1 mg/mL) transfection reagent and then cultured for 24 h. After 24 h of culture, cells transfected with the ARE luciferase reporter plasmid pGL4.37 were added to tBHQ (10 μM) and each of the sample solutions of the traditional Chinese compositions of the present disclosure with safe concentrations, respectively, a control group was set, and the cells were cultured for 6 h; cells transfected with the NF-kB luciferase reporter plasmid pGL4.32 were added to TNF-α (10 ng/mL)-dexamethasone (10 μM) diluted with a complete medium and each of the sample solutions of the traditional Chinese compositions of the present disclosure with safe concentrations, respectively, a control group and a model group (10 ng/mL TNF-a) were set, and the cells were cultured for 6 h. The supernatant was discarded, the cells were rinsed with PBS, and after the cells were lysed, the cells were detected by a dual-luciferase detection system. Six duplicate wells were set for each experiment, and each experiment was repeated three times. […]

With `CC(C)(C)c1cc(O)ccc1O` [tBHQ, tertiary butylhydroquinone] the “ARE luciferase activity of 293T cells (x ± SD)” value was 6.82 ± 1.28.
